Read-outs that look alike come from different tables or passages of the source.
Key:
[1] = rats, after tramadol administration; ref Sheikholeslami, 2016; cited from earlier work
[2] = system: cat liver microsomes; assay type: in vitro ADME; details: for formation to metabolism ratio: feline liver microsomes, formation rate from (±)-tramadol (Perez Jimenez, 2016) / rate of (+)-M5 formation from the (+)-metabolite
[3] = system: human liver microsomes; assay type: in vitro ADME; details: human liver microsomes; formation rate from (±)-tramadol (Perez Jimenez, 2016) / rate of (+)-M5 formation from the (+)-metabolite
[4] = system: dog liver microsomes; assay type: in vitro ADME; details: for formation to metabolism ratio: DLMs, formation rate from (±)-tramadol (Perez Jimenez, 2016) / rate of (+)-M5 formation from the (+)-metabolite; for Km / Vmax: formation of (+)-M5 from substrate
[5] = biological target: T1, CYP2D15 (Canis lupus familiaris, UniProt Q29473); assay: in vitro; details: dog, recombinant enzyme
T1 sequence (Q29473 1-500): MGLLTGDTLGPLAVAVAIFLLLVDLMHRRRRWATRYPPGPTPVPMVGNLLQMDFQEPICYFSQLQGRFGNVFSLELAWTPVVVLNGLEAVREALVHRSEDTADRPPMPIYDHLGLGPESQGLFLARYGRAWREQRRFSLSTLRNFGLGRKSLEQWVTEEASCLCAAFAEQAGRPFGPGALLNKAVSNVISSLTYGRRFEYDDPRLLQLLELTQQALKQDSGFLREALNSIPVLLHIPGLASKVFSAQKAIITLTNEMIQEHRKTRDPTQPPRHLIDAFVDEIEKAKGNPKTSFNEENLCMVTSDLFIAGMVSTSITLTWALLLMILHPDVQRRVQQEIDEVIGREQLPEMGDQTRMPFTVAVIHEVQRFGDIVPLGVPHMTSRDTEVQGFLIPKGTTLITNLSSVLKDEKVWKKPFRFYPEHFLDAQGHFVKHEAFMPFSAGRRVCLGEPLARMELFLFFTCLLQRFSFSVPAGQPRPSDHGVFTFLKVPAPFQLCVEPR

[6] = system: (+)-M5 formation from (+)-M2 in pooled DLMs; assay: in vitro; details: dog
[7] = system: CYP2D15; details: CYP2D15 mediated dextromethorphan o-demethylation in DLMs; ref Aidasani, 2008; cited from earlier work
[8] = biological target: T1, CYP2D15; assay type: in vitro ADME, canine; details: recombinant CYP2D15; (+)-M1 10 μM, (+)-M2 0.5 μM
[9] = dog urine; ref Lintz, 1981; cited from earlier work
[10] = system: μ-opioid; details: in vitro testing; ref Gillen, 2000; cited from earlier work
[11] = dogs, after tramadol administration; ref Kukanich, 2011; Giorgi, 2009; cited from earlier work
[12] = biological target: T2, CYP2C21 (Canis lupus familiaris, UniProt P56594); assay: in vitro; details: dog, recombinant enzyme
T2 sequence (P56594 1-487): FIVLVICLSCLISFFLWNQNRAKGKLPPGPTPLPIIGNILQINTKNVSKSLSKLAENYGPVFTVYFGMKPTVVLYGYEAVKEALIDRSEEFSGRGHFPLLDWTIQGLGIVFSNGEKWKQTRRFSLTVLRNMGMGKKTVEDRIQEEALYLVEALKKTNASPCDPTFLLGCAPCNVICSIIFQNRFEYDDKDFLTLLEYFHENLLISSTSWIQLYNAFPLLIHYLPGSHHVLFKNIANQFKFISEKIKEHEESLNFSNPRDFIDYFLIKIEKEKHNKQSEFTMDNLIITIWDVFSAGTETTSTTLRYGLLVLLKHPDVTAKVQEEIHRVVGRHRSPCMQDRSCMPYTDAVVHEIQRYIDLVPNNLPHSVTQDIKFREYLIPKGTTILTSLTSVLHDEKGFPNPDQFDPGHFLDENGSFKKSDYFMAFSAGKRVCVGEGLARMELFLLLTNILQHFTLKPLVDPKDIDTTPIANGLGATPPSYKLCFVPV

[13] = system: (+)-M5 formation from (+)-M1 in pooled DLMs; assay: in vitro; details: dog

SMILES: COc1cccc(C2(O)CCCCC2CN(C)C)c1 (centres unmarked) [tramadol, reference compound]
- CSF to plasma concentration ratio [1]: 0.44

SMILES: CN(C)C[C@H]1CCCC[C@]1(O)c1cccc(O)c1 [M1, O-desmethyltramadol]
- formation to metabolism ratio [2]: 1926
- formation to metabolism ratio [3]: 71
- CSF to plasma concentration ratio [1]: 0.3
- formation to metabolism ratio [4]: 42

SMILES: CNCC1CCCCC1(O)c1cccc(OC)c1 (centres unmarked) [M2, N-desmethyltramadol]
- formation to metabolism ratio [2]: 1.7
- formation to metabolism ratio [3]: 2.9
- CSF to plasma concentration ratio [1]: 0.4
- formation to metabolism ratio [4]: 3.1

SMILES: C=C[C@H]1C[N@@]2CC[C@H]1C[C@@H]2[C@@H](O)c1ccnc2ccc(OC)cc12 [quinidine]
- inhibition at 5 min, 10 μM [5]: > 70%
- inhibition at 5 min, 10 μM [6]: > 70%

SMILES: CC(=O)N1CCN(c2ccc(OCC3COC(Cn4ccnc4)(c4ccc(Cl)cc4Cl)O3)cc2)CC1 (centres unmarked) [ketoconazole]
- IC50 [7]: 470 nM

SMILES: CNCC1CCCCC1(O)c1cccc(OC)c1 (single isomer, unassigned; (+)) [(+)-M2, (+)-N-desmethyltramadol]
- formation rate of (+)-M5 (in words) [8]: only detected for CYP2D15
- (+)-M5 formation rate (in words) ([2]; pooled cat liver microsomes (n = 16), (+)-M1 at 10 μM, (+)-M2 at 0.5 μM): intermediate between human and DLMs
- Km ([4]; Dog 10 liver microsomes): 460 nM
- Vmax ([4]; Dog 10 liver microsomes): 27 pmol/min/mg protein
- Km ([4]; Dog 31 liver microsomes): 390 nM
- Vmax ([4]; Dog 31 liver microsomes): 23 pmol/min/mg protein
- Km ([4]; Dog 46 liver microsomes): 380 nM
- Vmax ([4]; Dog 46 liver microsomes): 39 pmol/min/mg protein
- Km ([4]; pDLM (liver microsomes pooled from 59 dogs)): 560 nM
- Vmax ([4]; pDLM (pooled from 59 dogs)): 50 pmol/min/mg protein
- (+)-M5 formation rate (in words) ([4]; pooled dog liver microsomes (n = 59), (+)-M1 at 10 μM, (+)-M2 at 0.5 μM): highest activities

SMILES: CNCC1CCCCC1(O)c1cccc(O)c1 (centres unmarked) [M5, N,O-didesmethyltramadol]
- CSF to plasma concentration ratio [1]: less than 0.1
- CSF to plasma ratio less than M1 [1]: 3 fold
- M5 and M5 conjugates as a percentage of total metabolites in urine [9]: 43%
- weaker μ-opioid agonist efficacy and potency compared with M1 [10]: about 30 times
- plasma concentration higher than M1 concentrations [11]: about 20 fold

SMILES: Nc1ccc(S(=O)(=O)Nc2ccnn2-c2ccccc2)cc1 [sulfaphenazole]
- inhibition at 5 min, 100 μM [5]: < 50%
- inhibition at 20 min, 100 μM [12]: > 50%
- inhibition at 5 min, 100 μM [6]: < 50%
- inhibition at 20 min, 100 μM [13]: > 50%

Reference: article PMC6214715 (Journal of veterinary pharmacology and therapeutics, 2018)
